Literature values as cited in article PMC5960647 (Experimental & Molecular Medicine, 2018).
Where no end group is shown, it is not given here.

What was measured:
CCKBR [1] = settings: cited from earlier work
CCKBR [2] = settings: dorsal root ganglion neurons, CCKBR in the same neuron; cited from earlier work

| Compound | effect on electroacupuncture analgesia (CCKBR [1]; caudate nucleus, through CCKBR) | effect on opioid analgesia (CCKBR [1]; shown with L-365,260) | effect on MOR-mediated inhibition of voltage-gated calcium current (CCKBR [2]) | effect on opioid-induced analgesia (CCKBR [1]) | effect on pain threshold of administration per se (CCKBR [1]) |
| --- | --- | --- | --- | --- | --- |
| cholecystokinin octapeptide (DYMGWMDF; ends and bridges not checked; UniProt P06307 96-103, looked up) [CCK-8] | antagonism to electroacupuncture analgesia | inhibited opioid analgesia through CCKBR | antagonized |  |  |
| Cc1cccc(NC(=O)N[C@@H]2N=C(c3ccccc3)c3ccccc3N(C)C2=O)c1 [L-365,260] |  |  |  | potentiated opioid-induced analgesia | did not affect pain threshold |
